The record followed here is patent publication US10421781B2, “Antimicrobial peptide and use thereof” (NOVACELL TECHNOLOGY INC., priority 2015, dated 2019).

Experiment [1] is described as follows: antibacterial activity of N-terminally lipid-modified peptides. To be noted: compared with peptides carrying other lipid groups (palmitoyl etc.) at the N-terminus. In kind it is cell-based. An excerpt:
In order to further improve the antibacterial activity of the peptides that underwent the basic screening in Example 1, the present inventors have examined the antibacterial activity of these peptides by synthesizing modified peptides in which various lipid components, such as a palmitoyl group, an octanoyl group, etc., were attached to the N-terminus of these peptides.

In a further experiment the test system is Pseudomonas aeruginosa. As to the kind of experiment: antibacterial test in nutrient broth (absorbance at 600 nm). It counts as cell-based. How it is done:
(§1) In order to further improve the antibacterial activity of the peptides prepared in Example 2, an antibacterial test was performed. Gram-positive bacteria Staphylococcus epidermidis and Staphylococcus aureus) and gram-negative bacteria (Pseudomonas aeruginosa and E. coli) were prepared, streaked on agar plate medium using a four-quadrant sequential streak technique, and cultured in a 36° C. incubator overnight. On the next day, the strain colonies on the agar plate medium were inoculated into nutrient broth (3 mL) and cultured overnight at 36° C. and 220 rpm in a shaking incubator. On the next day, the bacteria culture was diluted and the absorbance at 600 nm was measured and adjusted to 0.5. Then, the bacteria culture was diluted in nutrient broth in a 1:100 ratio. Then, the peptides prepared in Example 2 were sequentially diluted in nutrient broth at concentrations of 0 μM, 1.25 μM, 2.5 μM, 5 μM, 10 μM, and 20 μM in an amount of 1 mL, respectively, and 1 mL of the diluted bacteria was inoculated, and cultured overnight at 36° C. and 220 rpm in a shaking incubator for 18 hours. Then, the absorbance was measured at 600 nm and the results were analyzed.

A further experiment deals with Staphylococcus aureus. The experiment is described as above. It counts as cell-based. The method, then: as §1
Experiment [2] relates to Staphylococcus epidermidis. The experiment is described as above. In kind it is cell-based. How it is done:
as §1

Experiment [3] relates to atopic dermatitis induced by capsaicin (2 W Cap). As to the kind of experiment: 2 W Cap model of atopic dermatitis induced by capsaicin. In kind it is in vivo, Sprague Dawley rats. To be noted: 10 μM applied daily on back and ears. An excerpt: As such, to confirm whether the peptide according to an embodiment of the present invention can actually treat immune-related diseases by activating immunological functions in vivo, the present inventors examined whether the symptoms of atopic dermatitis can be ameliorated by treating the peptide on the animal model of atopic dermatitis. Specifically, to confirm whether the peptide has the effect of ameliorating dermatitis in a model of atopic dermatitis induced by capsaicin, the present inventors observed the degree of skin improvement after treating the peptide (NCP112) according to an embodiment of the present invention on the animals with atopy (Neo-Cap and 2 W Cap) in the dermis of atopy-induced skin tissue, the applied site in the dermis, and the site with scratches. Neo-Cap, which is a representative model of atopic dermatitis, was subcutaneously injected with capsaicin (50 mg/kg) on the back skin of neonatal rats (Sprague Dawley rats) of less than 48 hours to induce atopic dermatitis. 2 W Cap, which is a model mimicking of atopic dermatitis developed in adolescent period or adults, was subcutaneously injected twice with capsaicin (25 mg/kg) of 2-week-old rats (Sprague Dawley) to induce atopic dermatitis.
In 2 W-Cap model, the dermatitis score was measured one week after the capsaicin injection, and the control group (PBS) and NCP112 were applied daily on the back (200 μL) and both ears (50 μL) at a concentration of 10 μM, and the dermatitis score was measured at one-week intervals for two weeks, in the same manner as in Neo-Cap model.
The mice analyzed in Experimental Example 3-1 were treated with the peptide according to an embodiment of the present invention, and after five weeks, the mice were sacrificed. The skin tissue at the site where dermatitis was induced by capsaicin treatment was removed in a size of about 3 cm×3 cm and the tissue was fixed in a 4% paraformaldehyde solution for two to three days. […]

Experiment [4] has as its system atopic dermatitis induced by capsaicin (Neo-Cap). Kind of experiment: Neo-Cap model of atopic dermatitis induced by capsaicin. In kind it is in vivo, Sprague Dawley rats. Particulars: 10 μM applied daily on back and ears. How it is done: As such, to confirm whether the peptide according to an embodiment of the present invention can actually treat immune-related diseases by activating immunological functions in vivo, the present inventors examined whether the symptoms of atopic dermatitis can be ameliorated by treating the peptide on the animal model of atopic dermatitis. […]
In Neo-Cap model, the dermatitis score was measured two weeks after the injection of capsaicin, and the control group (PBS) and NCP112 were applied daily on the back (200 μL) and both ears (50 μL) at a concentration of 10 μM, and the dermatitis score was measured at one-week intervals for three weeks. The dermatitis score was measured on the face, ears, back (total) and ears, and back (application site) according to skin conditions, and the score was standardized by setting the score at the second week (i.e., the starting point) at 1, as shown in FIG. 4.
The mice analyzed in Experimental Example 3-1 were treated with the peptide according to an embodiment of the present invention, and after five weeks, the mice were sacrificed. […]

The next experiment addresses T1, FPR2 (Homo sapiens, UniProt P25090).
T1 construct: expressed in transfected cells; host or cells: RBL cells overexpressing FPR2 (FPR2-RBL)
T1 sequence (P25090 1-351): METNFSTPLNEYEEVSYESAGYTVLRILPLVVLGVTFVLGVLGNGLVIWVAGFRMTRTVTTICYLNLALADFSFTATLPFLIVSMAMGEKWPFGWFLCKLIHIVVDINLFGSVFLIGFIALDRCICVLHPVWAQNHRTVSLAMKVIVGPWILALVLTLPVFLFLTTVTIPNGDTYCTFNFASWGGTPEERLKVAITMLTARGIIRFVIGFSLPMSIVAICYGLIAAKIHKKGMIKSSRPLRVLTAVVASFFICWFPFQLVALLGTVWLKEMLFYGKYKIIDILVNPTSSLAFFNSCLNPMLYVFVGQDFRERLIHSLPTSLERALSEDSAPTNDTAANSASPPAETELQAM
As to the kind of experiment: intracellular calcium ions (Fura-2/AM) in RBL cells overexpressing FPR2. It counts as cell-based. An excerpt:
To examine whether the peptide according to an embodiment of the present invention activates the in vivo immunological function of a living organism, the present inventors observed the changes in calcium ion permeability. Specifically, they measured the concentration of intracellular calcium ions to examine whether the peptide activates FPR2. To this end, the present inventors used RBL cells in which FPR2 was not expressed, RBL cells in which FPR1 was overexpressed (FPR1-RBL), and RBL cells in which FPR2 was overexpressed, and used Fura-2/AM, a staining material having a strong binding affinity for calcium, as a method for sensitive measurement of the release of intracellular calcium ions. […] Approximately 2×10^6 cells were taken each time and harvested by rapid centrifugation, and resuspended in 1 mL of Locke solution in which EGTA was added but no calcium ions were added, and the absorbance ratios at two wavelengths of 340 nm and 380 nm were monitored on a spectrophotometer. After treating with the peptide of the present invention at different concentrations (1 μM, 0.1 μM, and 0.01 μM) at intervals of about 1 minute, the difference in absorbance at two wavelengths of 340 nm and 380 nm was examined and this was later converted to the concentration of calcium ions freed into the cells according to the method of Grynkiewicz.
(Calcium flux is commonly read through the fluorescence of an indicator in the cells.)

The subject of a further experiment is E. coli. As to the kind of experiment: antibacterial test in nutrient broth (absorbance at 600 nm). It counts as cell-based, Escherichia coli. How it is done: as §1
Setting [5] is: 10 μM peptide, 18 hours, 36° C., absorbance 600 nm.
The mark [6] stands for this setting: versus control (PBS), week 5, FIG. 6.

As to Oct-KFKWRYm [NCP112], the “antibacterial activity among modified peptides” value in experiment [1] is listed as “highest activity”. Besides, the antibacterial activity result in the experiment with Pseudomonas aeruginosa (0 to 20 μM peptide, FIG. 1) is on record as “concentration-dependent manner”; in the experiment with Staphylococcus aureus (0 to 20 μM peptide, FIG. 1) it was “concentration-dependent manner”; in experiment [2] (0 to 20 μM peptide, FIG. 1), “concentration-dependent manner”; with E. coli (0 to 20 μM peptide, FIG. 1) it was “concentration-dependent manner”. The growth of bacteria result (in the experiment with Pseudomonas aeruginosa (setting [5]); with Staphylococcus aureus (setting [5]); in experiment [2] (setting [5]); with E. coli (setting [5])) was “completely inhibited the growth” throughout. For the same substance, the “antibacterial effect compared among the 4 kinds of bacteria” value with Pseudomonas aeruginosa (FIG. 1) is on record as “highest antibacterial effect”. In experiment [3], the skin conditions entry is listed as “comparable to that of the normal conditions”. The “symptom of atopic dermatitis” value in experiment [3] and in experiment [4] was “effect of ameliorating the symptom of atopic dermatitis” each time. The figures for the “epidermal layer (thickness, H&E stained skin tissue)” value in experiment [3] (setting [6]) and in experiment [4] (setting [6]) were “significant decrease” and “slight decrease”, respectively. Besides, the “amount of intracellular concentration increase of calcium ions” value at FPR2 (1 μM, 0.1 μM and 0.01 μM peptide, FPR2-RBL cells, FIG. 2B) is recorded as “concentration-dependent feature”. Besides, the intracellular calcium ions result on FPR2 (FPR2-RBL versus RBL and FPR1-RBL cells, FIG. 2A) is recorded as “rapidly increased specifically in FPR2-RBL cells”.
